Reference: patent US20130045931A1 (priority 2010, published 2013)

Legend:
Gram-positive bacteria = conditions: some Gram-positive bacteria; cited from earlier work
Gram-negative bacteria = conditions: cited from earlier work
[1] = test system: Propionibacterium acnes (DSM 1897); experiment: Antibacterial activity against causative agent of acne vulgaris; type: cell-based
[2] = test system: Xanthomonas campestris (DSM 2405); type: cell-based
Phytophthora infestans = type: cell-based; conditions: Phytophthora infestans (Isolate), 48 hours at 20° C. in the dark
[3] = test system: intestinal tumor cell line HT29; experiment: CellTiter-Blue cell viability assay; type: cell-based, human
Description: (§1) To determine the proliferation and cytotoxicity in respect of the liver tumor cell line HepG2 and the intestinal tumor cell line HT29, the effect on the metabolic activity of the cells was studied by means of the CellTiter-Blue® cell viability assay as described by O'Brien et al. (2000 Investigation of the alamar blue (resazurin) fluorescent dye for the assessment of mammalian cell cytotoxicity. European Journal of Biochemistry 267: 5421-6).

[4] = test system: liver tumor cell line HepG2; experiment: CellTiter-Blue cell viability assay; type: cell-based, human
Description: as §1

GXF251L (gastric tumor) = experiment: Antiproliferative activity, propidium iodide fluorescence assay (Dengler et al. 1995); type: cell-based, human
LXF529L (lung tumor) = experiment: as above; type: cell-based, human
[5] = test system: MAXF401NL (breast cancer); experiment: as above; type: cell-based, human
[6] = test system: PAXF1657L (pancreatic tumor); experiment: as above; type: cell-based, human
[7] = test system: Bacillus subtilis (DSM 347); experiment: Antibacterial growth inhibition (Lang et al. 2007)
[8] = test system: Staphylococcus lentus (DSM 6672); experiment: Antibacterial growth inhibition (Lang et al. 2007)
[9] = test system: Staphylococcus aureus (ATCC 12600); experiment: Antibacterial test, clinically relevant strains (Sahly et al. 2003)
[10] = test system: Staphylococcus aureus (ATCC 33593, methicillin-resistant); experiment: as above
[11] = test system: Staphylococcus epidermidis (Isolate, biofilm former); experiment: as above
[12] = test system: Pseudomonas aeruginosa (ATCC 10145); experiment: as above; conditions: biofilm former

Row | Molecule | activity against Gram-positive bacteria (Gram-positive bacteria) | activity against Gram-negative bacteria (Gram-negative bacteria) | IC50 [1] [µM] | IC50 [2] [µM] | IC50 (Phytophthora infestans) [µM] | IC50 [3] [µM] | IC50 [4] [µM] | IC50 (GXF251L (gastric tumor)) [µM] | IC50 (LXF529L (lung tumor)) [µM] | IC50 [5] [µM] | IC50 [6] [µM] | IC50 [7] [µM] | IC50 [8] [µM] | IC50 [9] [µM] | IC50 [10] [µM] | IC50 [11] [µM] | IC50 [12] [µM]
1 | Cc1cc2cc(O)c3c(c2c(O[C@@H]2C[C@H](N(C)C)[C@H](O)[C@@H](C)O2)c1[C@@H]1C[C@H](N(C)C)[C@@H](O)[C@H](C)O1)C(=O)c1cccc(O)c1C3=O [benzanthrin B] | active against some Gram-positive bacteria | not against Gram-negative bacteria |  |  |  |  |  |  |  |  |  |  |  |  |  |  | 
2 | mayamycin |  |  | 31.2 | 30 | 15.2 | 0.3 | 0.2 | 0.2 | 0.16 | 0.29 | 0.15 | 8 | 8 | 2.5 | 1.25 | 0.31 | 2.5
3 | Cc1cc2cc(O)c3c(c2c(O[C@@H]2C[C@H](N(C)C)[C@@H](O)[C@@H](C)O2)c1[C@@H]1C[C@H](N(C)C)[C@@H](O)[C@H](C)O1)C(=O)c1cccc(O)c1C3=O [benzanthrin A] | active against some Gram-positive bacteria | not against Gram-negative bacteria |  |  |  |  |  |  |  |  |  |  |  |  |  |  | 
